From publication PMC3914206

How the values were obtained:
panel of 442 kinases [1] = target: T1, panel of 442 kinases (Homo sapiens, UniProt Q59H18); assay type: binding; conditions: kinase TNNI3K; compound concentration 10 µM
T1 construct: purchased KINOMEscan
T1 sequence (Q59H18 1-835): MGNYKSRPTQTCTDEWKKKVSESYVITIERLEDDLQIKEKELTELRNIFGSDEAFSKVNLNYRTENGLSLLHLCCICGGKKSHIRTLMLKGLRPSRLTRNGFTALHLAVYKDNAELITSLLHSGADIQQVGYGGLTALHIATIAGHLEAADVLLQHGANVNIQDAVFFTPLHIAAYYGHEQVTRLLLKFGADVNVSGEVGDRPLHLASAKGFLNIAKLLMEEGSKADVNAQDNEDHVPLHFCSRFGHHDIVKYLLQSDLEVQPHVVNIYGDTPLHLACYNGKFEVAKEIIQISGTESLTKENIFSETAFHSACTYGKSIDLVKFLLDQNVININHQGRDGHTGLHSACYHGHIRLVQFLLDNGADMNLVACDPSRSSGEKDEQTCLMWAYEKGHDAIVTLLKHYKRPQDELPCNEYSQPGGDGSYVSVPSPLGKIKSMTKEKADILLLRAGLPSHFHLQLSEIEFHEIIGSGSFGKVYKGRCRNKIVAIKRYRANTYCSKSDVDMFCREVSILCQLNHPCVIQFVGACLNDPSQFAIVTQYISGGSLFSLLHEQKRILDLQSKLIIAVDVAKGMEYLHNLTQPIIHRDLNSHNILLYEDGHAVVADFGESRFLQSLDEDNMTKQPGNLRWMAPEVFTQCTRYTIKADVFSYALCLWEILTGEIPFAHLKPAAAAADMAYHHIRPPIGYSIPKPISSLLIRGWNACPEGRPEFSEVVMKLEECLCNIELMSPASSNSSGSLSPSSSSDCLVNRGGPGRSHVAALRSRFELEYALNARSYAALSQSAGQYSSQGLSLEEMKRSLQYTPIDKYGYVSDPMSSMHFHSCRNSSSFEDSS
From the text: (§1) We assessed the selectivity of members of this scaffold using the KINOMEscan methodology across a near comprehensive panel of 442 kinases [[18,27]].

panel of 442 kinases [2] = target: T2, panel of 442 kinases (Homo sapiens, UniProt P33981); assay type: binding; conditions: kinase TTK; compound concentration 10 µM
T2 construct: purchased KINOMEscan
T2 sequence (P33981 1-857): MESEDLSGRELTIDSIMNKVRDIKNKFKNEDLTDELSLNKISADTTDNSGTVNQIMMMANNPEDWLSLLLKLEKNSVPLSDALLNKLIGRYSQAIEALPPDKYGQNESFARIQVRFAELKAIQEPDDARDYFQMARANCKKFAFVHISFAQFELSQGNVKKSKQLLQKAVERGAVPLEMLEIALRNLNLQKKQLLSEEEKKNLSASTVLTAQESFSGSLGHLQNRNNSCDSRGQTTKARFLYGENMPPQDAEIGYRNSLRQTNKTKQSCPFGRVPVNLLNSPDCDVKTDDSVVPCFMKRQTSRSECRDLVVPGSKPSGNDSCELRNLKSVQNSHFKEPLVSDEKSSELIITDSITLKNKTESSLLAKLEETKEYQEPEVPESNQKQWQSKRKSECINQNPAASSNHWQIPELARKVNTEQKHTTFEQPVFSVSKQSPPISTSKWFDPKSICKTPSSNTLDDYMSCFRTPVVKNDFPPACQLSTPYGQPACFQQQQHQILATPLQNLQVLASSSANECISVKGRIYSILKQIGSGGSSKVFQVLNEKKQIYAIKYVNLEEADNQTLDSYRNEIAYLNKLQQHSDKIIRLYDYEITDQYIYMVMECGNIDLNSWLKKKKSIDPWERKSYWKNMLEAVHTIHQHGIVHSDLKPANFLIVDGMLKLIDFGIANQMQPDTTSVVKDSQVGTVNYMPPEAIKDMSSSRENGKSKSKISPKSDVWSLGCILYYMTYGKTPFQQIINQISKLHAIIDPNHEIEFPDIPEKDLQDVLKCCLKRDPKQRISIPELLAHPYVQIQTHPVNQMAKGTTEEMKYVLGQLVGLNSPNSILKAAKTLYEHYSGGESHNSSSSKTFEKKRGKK
From the text: as §1

Structure (SMILES)	% Ctrl, TNNI3K (panel of 442 kinases [1])	% Ctrl, TTK (panel of 442 kinases [2])
CCOc1cc(C(=O)N2CCC(N3CCN(C)CC3)CC2)ccc1Nc1ncc2c(n1)N(C1CCCC1)c1ccccc1C(=O)N2C [Compound 26]	89 % Ctrl	49 % Ctrl
COc1cc(C(=O)N2CCC(N3CCN(C)CC3)CC2)ccc1Nc1ncc2c(n1)N(C1CCCC1)c1ccccc1C(=O)N2C [Compound 25, 11-cyclopentyl-2-((2-methoxy-4-(4-(4-methylpiperazin-1-yl)piperidine-1-carbonyl)phenyl)amino)-5-methyl-5H-benzo[e]pyrimido[5,4-b][1,4]diazepin-6(11H)-one]	82 % Ctrl	94 % Ctrl
COc1cc(C(=O)N2CCC(N3CCN(C)CC3)CC2)ccc1Nc1ncc2c(n1)N1CCc3cccc(c31)C(=O)N2C [Compound 24]	73 % Ctrl	46 % Ctrl
COc1cc(C(=O)N2CCC(N3CCN(C)CC3)CC2)ccc1Nc1ncc2c(n1)N(C)c1ccccc1C(=O)N2C [15 (LRRK2-IN-1)]	100 % Ctrl	28 % Ctrl
